Test results published in patent publication US12442827B2 (UNIVERSITY OF NORTH TEXAS HEALTH SCIENCE CENTER AT FORT …, priority 2019, dated 2025).

B1: PIP: hormonally regulated protein, a 17-kDa glycoprotein (protein, UniProt P12273 29-146, looked up)
Prolactin-inducible protein: QDNTRKIIIKNFDIPKSVRPNDEVTAVLAVQTELKECMVVKTYLISSIPLQGAFNYKYTACLCDDNPKTFYWDFYTNRTVQIAAVVDVIRELGICPDDAAVIPIKNNRFYTIEILKVE

Legend:
Format in all cases: cell-based, human
HCFs = assay: LH/FSH ratio in 3D constructs after DHEA, Estrone, Estriol stimulation (Western blot); settings: HCFs (cells from Healthy individuals), 4 weeks, FIGS. 9A to 9C
Source text: (§1) In FIGS. 9A to 9C, healthy corneas were obtained from the National Disease Research Interchange (NDRI). KC corneas were obtained from individuals immediately following corneal transplantation. Inclusion/exclusion criteria for healthy controls required absence of ophthalmic disease, diabetes, or infectious conditions. Tissue from KC patients who had previously undergone collagen crosslinking was excluded. Corneal stromal cells were isolated from healthy (HCFs) and KC (HKCs) corneas. Both HCFs and HKCs were isolated as previously described. Briefly, using a surgical scalpel, the corneal epithelium and endothelium were removed. The corneal stroma was then washed in sterile PBS, cut into small pieces (approximately 2×2 mm), and placed into flasks; the cells were then allowed to adhere. Explants were grown for 2-4 weeks at 37° C./5% CO2/95% relative humidity, using Eagle's Minimum Essential Media (EMEM) supplemented with 10% fetal bovine serum (Atlanta Biologicals, Flowery Branch, GA, USA), and antibiotic/antimycotic (Anti/Anti, Life Technologies, Grand Island, NY, USA). Once confluent, cells were isolated following trypsinization, subcultured, or frozen using standard cryoprotective protocols. Three-dimensional constructs: —HCFs and HKCs were plated at a density of 1×10^6 cells/well on six-well size polycarbonate membrane inserts with 0.4-μm pores (VWR, Radnor, PA, USA). The cells were cultured in EMEM containing 10% FBS, 1% antibiotic, and stimulated with a stable Vitamin C derivative (0.5 mM 2-O-α-D-glucopyranosyl-L-ascorbic acid: Sigma-Aldrich, St. Louis, MO, USA). Cultures were grown for a total of 4 weeks and fresh media was supplied every other day for the duration of the study. Protein extraction and further analysis occurred at the 4-week timepoint.
(§2) All cultures were collected and washed twice with PBS, and total protein was isolated using 1× radioimmunoprecipitation assay (RIPA) buffer (50 mM Tris pH 8, 150 mM NaCl, 1% Triton X-100, and 0.1% SDS) containing a protease inhibitor cocktail (Sigma-Aldrich, St. Louis, MO, USA). Cell lysates were centrifuged at 4° C., and the supernatant was isolated and subjected to a Pierce BCA Protein assay (ThermoScientific, Rockford, IL, USA) for protein concentration quantification. Novex 4-20% Tris-glycine mini WedgeWell format 12-well gels (FisherScientific, Hampton, NH, USA) were electrophoresed at 130 V for 1.5 h, and transferred onto a nitrocellulose membrane at 100 V for 1 hour on ice. B lots were blocked in 5% dry milk (Great Value, Bentonville, AR, USA) for 1 h, at room temperature, with shaking. […] Results were analyzed by normalizing values to the expression of housekeeping antibody β-Actin (Abcam, Cambridge, MA, USA).

HKCs = assay: as above; settings: HKCs (cells from Keratoconus patients), 4 weeks, FIGS. 9A to 9C
Source text: as §1, §2

Healthy cells (HCFs) = assay: LH/FSH ratio after PIP treatment (Western blot); settings: PIP 50-500 ng/ml, 48 hours, in a concentration dependent manner, FIG. 12
Experimental: (§3) In FIG. 12, HCFs and HKCs were seeded in 12-well plates at 5×10^5 cells/well in regular media. 24 hours later media was replaced for treatment media (regular media supplemented with the treatment). The treatments consisted on five different concentrations of PIP: 50 ng/ml, 100 ng/ml, 200 ng/ml, 350 ng/ml and 500 ng/ml at a number of four wells per treatment. After 48 hours treatment finished and all the wells were wash with PBS and proteins were extracted using 1 ml of RIPA buffer 1×. Bradford assay (Thermo scientific, IL, USA) was carried out to determine the protein concentration and normalize the samples. For western blot analysis samples were mixed with loading buffer and equal amounts of protein were loaded (25 μg per lane) on a 4-20% Tris-Glycine gel (Novex, Life technologies, Carlsbad, CA) and electrophoresed at 135-140V for 1.5 hour. Each sample was run single. T hereafter, the gel was transferred on to a nitrocellulose membrane (Novex, Nitrocellulose membrane, Life Technologies, Carlsbad, CA), at 100V for 1 hour on ice. Finally, the membranes were blocked in milk (5% milk in TBST; Thermo scientific, IL, USA) for 1 hour and incubated overnight in the rocker at 4° C. with the primary antibody at 1:250 dilution. […] GAPDH (rabbit polyclonal ab9485, Abcam, Cambridge, MA) was used as housekeeping for all the targets at a dilution of 1:1000. […]

KC cells (HKCs) = assay: LH/FSH ratio after PIP treatment (Western blot); settings: PIP 50-500 ng/ml, 48 hours, in a concentration dependent manner, FIG. 12
Experimental: as §3

Row | Molecule | LH/FSH ratio modulated in vitro (HCFs) | LH/FSH ratio modulated in vitro (HKCs) | LH/FSH ratio modulation (Healthy cells (HCFs)) | LH/FSH ratio modulation (KC cells (HKCs))
1 | C[C@]12CC[C@H](O)CC1=CC[C@@H]1[C@@H]2CC[C@]2(C)C(=O)CC[C@@H]12 [DHEA] | moving towards a disease-phenotype | “recovering” towards a healthy phenotype | – | –
2 | C[C@]12CC[C@@H]3c4ccc(O)cc4CC[C@H]3[C@@H]1C[C@@H](O)[C@@H]2O [Estriol] | moving towards a disease-phenotype | “recovering” towards a healthy phenotype | – | –
3 | B1 | – | – | modulated | modulated
